This is an account of results in patent US10765116B2, “2-[3-(alkylsulfonyl)-2H-indazol-2-yl]-3H-imidazo[4,5-B]pyridine derivatives and similar compounds as pesticides” (BAYER CROPSCIENCE AKTIENGESELLSCHAFT, priority 2016, dated 2020).

What all share (format): in vivo
The test system of one assay is Phaedon cochleariae. The assay can be described thus: Phaedon cochleariae spray test. To be noted: application rate 100 g/ha, Chinese cabbage leaf discs, larvae, after 7 days. The method, then: (§1) Solvent: 78.0 parts by weight of acetone • • 1.5 parts by weight of dimethylformamide Emulsifier: alkylaryl polyglycol ether To produce a suitable active ingredient formulation, 1 part by weight of active ingredient is dissolved with the specified parts by weight of solvent and made up to the desired concentration with water containing an emulsifier concentration of 1000 ppm. To produce further test concentrations, the formulation is diluted with emulsifier-containing water. Discs of Chinese cabbage leaves (Brassica pekinensis) are sprayed with an active ingredient formulation of the desired concentration and, after drying, populated with larvae of the mustard beetle (Phaedon cochleariae). After 7 days, the efficacy in % is determined. 100% means that all the beetle larvae have been killed; 0% means that no beetle larvae have been killed.

For assay [1], the system named is Myzus persicae. The assay can be described thus: Myzus persicae oral test. To be noted: 120 h, mixed population of green peach aphids, after 5 days, read-out: efficacy; for pest or weed control at 4 ppm: application rate 4 ppm; for pest or weed control at 20 ppm: application rate 20 ppm. As for the experimental part: Solvent: 100 parts by weight of acetone To produce a suitable active ingredient formulation, 1 part by weight of active ingredient is dissolved with the stated parts by weight of solvent and made up to the desired concentration with water. 50 μl of the active ingredient formulation are transferred into microtitre plates and made up to a final volume of 200 μl with 150 μl of IPL41 insect medium (33%+15% sugar). Subsequently, the plates are sealed with parafilm, which a mixed population of green peach aphids (Myzus persicae) within a second microtitre plate is able to puncture and imbibe the solution through it. After 5 days, the efficacy in % is determined. 100% means that all the aphids have been killed; 0% means that no aphids have been killed.

Another assay relates to Spodoptera frugiperda. Description: Spodoptera frugiperda spray test. The settings on record: application rate 100 g/ha, maize leaf discs, caterpillars, after 7 days. As for the experimental part:
as §1, with “water. Leaf discs” for “water. Discs”, “of maize (Zea mays)” for “of Chinese cabbage leaves (Brassica pekinensis)”, “with caterpillars” for “with larvae”, “the armyworm (Spodoptera frugiperda).” for “the mustard beetle (Phaedon cochleariae).”, “the caterpillars” for “the beetle larvae”, “no caterpillar has” for “no beetle larvae have”

The test system of another assay is Lucilia cuprina. Description: Lucilia cuprina test. The settings on record: application rate 100 ppm, L1 larvae, minced horsemeat, after 2 days. As for the experimental part:
Solvent: dimethyl sulfoxide To produce a suitable active ingredient formulation, 10 mg of active ingredient are mixed with 0.5 ml of dimethyl sulfoxide, and the concentrate is diluted with water to the desired concentration. About 20 L1 larvae of the Australian sheep blowfly (Lucilia cuprina) are transferred into a test vessel containing minced horsemeat and the active ingredient formulation of the desired concentration. After 2 days, the kill in % is determined. 100% means that all the larvae have been killed; 0% means that no larvae have been killed.

Assay [2] deals with Ctenocephalides felis. The assay can be described thus: Ctenocephalides felis oral test. To be noted: application rate 100 ppm in citrated cattle blood, adult cat fleas, after 2 days. The method, then:
Solvent: dimethyl sulfoxide To produce a suitable active ingredient formulation, 10 mg of active ingredient are mixed with 0.5 ml of dimethyl sulfoxide. Dilution with citrated cattle blood gives the desired concentration. About 20 unfed adult cat fleas (Ctenocephalides felis) are placed into a chamber which is closed at the top and bottom with gauze. A metal cylinder whose bottom end is closed with parafilm is placed onto the chamber. The cylinder contains the blood/active ingredient formulation, which can be imbibed by the fleas through the parafilm membrane. After 2 days, the kill in % is determined. 100% means that all of the fleas have been killed; 0% means that none of the fleas have been killed.

For assay [3], the system named is Ctenocephalides felis. Description: Ctenocephalides felis in vitro contact test with adult cat fleas. To be noted: application rate 5 μg/cm^2 (=500 g/ha), coated glass tube, after 48 h. As for the experimental part: For the coating of the test tubes, 9 mg of active ingredient are first dissolved in 1 ml of acetone p.a. and then diluted to the desired concentration with acetone p.a. 250 μl of the solution are distributed homogeneously on the inner walls and the base of a 25 ml glass tube by turning and rocking on an orbital shaker (rocking rotation at 30 rpm for 2 h). With 900 ppm of active ingredient solution and internal surface area 44.7 cm^2, given homogeneous distribution, an area-based dose of 5 μg/cm^2 is achieved. After the solvent has evaporated off, the glass tubes are populated with 5-10 adult cat fleas (Ctenocephalides felis), sealed with a perforated plastic lid and incubated in a horizontal position at room temperature and ambient humidity. After 48 h, efficacy is determined. To this end, the tubes are stood upright and the fleas are knocked to the base of the tube. Fleas which remain motionless at the base or move in an uncoordinated manner are considered to be dead or moribund. […] 100% efficacy means that all the fleas were dead or moribund. 0% efficacy means that no fleas were harmed.

Assay [4] relates to Myzus persicae. Description: Myzus persicae spray test. The settings on record: application rate 100 g/ha, Chinese cabbage leaf discs, all stages, after 5 days. The method, then:
as §1, with “78” for “78.0”, “pekinensis) infested by all stages of the green peach aphid (Myzus persicae)” for “pekinensis)”, “concentration.” for “concentration and, after drying, populated with larvae of the mustard beetle (Phaedon cochleariae).”, “5” for “7”, “aphids” for “beetle larvae”

A further assay concerns Musca domestica. The assay can be described thus: Musca domestica test. To be noted: application rate 100 ppm, adult houseflies, after 2 days. As for the experimental part: Solvent: dimethyl sulfoxide
To produce a suitable active ingredient formulation, 10 mg of active ingredient are mixed with 0.5 ml of dimethyl sulfoxide, and the concentrate is diluted with water to the desired concentration.
Vessels containing a sponge treated with sugar solution and the active ingredient formulation of the desired concentration are populated with 10 adult houseflies (Musca domestica).
After 2 days, the kill in % is determined. 100% means that all of the flies have been killed; 0% means that none of the flies have been killed.

Another assay has as its system Rhipicephalus sanguineus. The assay can be described thus: Rhipicephalus sanguineus in vitro contact test with adult brown dog ticks. To be noted: application rate 5 μg/cm^2 (=500 g/ha), coated glass tube, after 48 h. As for the experimental part: For the coating of the test tubes, 9 mg of active ingredient are first dissolved in 1 ml of acetone p.a. and then diluted to the desired concentration with acetone p.a. 250 μl of the solution are distributed homogeneously on the inner walls and the base of a 25 ml glass tube by turning and rocking on an orbital shaker (rocking rotation at 30 rpm for 2 h). With 900 ppm of active ingredient solution and internal surface area 44.7 cm^2, given homogeneous distribution, an area-based dose of 5 μg/cm^2 is achieved. After the solvent has evaporated off, the tubes are populated with 5-10 adult dog ticks (Rhipicephalus sanguineus), sealed with a perforated plastic lid and incubated in a horizontal position in the dark at room temperature and ambient humidity. After 48 h, efficacy is determined. To this end, the ticks are knocked to the base of the tube and incubated on a hotplate at 45-50° C. for not more than 5 min. Ticks which remain motionless on the base or move in such an uncoordinated manner that they are unable to deliberately avoid the heat by climbing upwards are considered to be dead or moribund. […] An efficacy of 100% means that all the ticks were dead or moribund. 0% efficacy means that none of the ticks were harmed.

Regarding `CCS(=O)(=O)c1c2ccc(Cl)cc2nn1-c1nc2cc(C(F)(F)F)cnc2n1C` [Example I-1, 2-[6-Chloro-3-(ethylsulfonyl)-2H-indazol-2-yl]-3-methyl-6-(trifluoromethyl)-3H-imidazo[4,5-b]pyridine], the efficacy in the assay on Phaedon cochleariae and in the assay with Spodoptera frugiperda was 100% throughout. In addition, the pest or weed control at 4 ppm in the assay with Myzus persicae [1] came out at 90%. For the same compound, the “efficacy (kill)” value in the assay on Lucilia cuprina is 100%.
As to `CCS(=O)(=O)c1c2cc(Cl)ccc2nn1-c1nc2cc(C(F)(F)F)cnc2n1C` [Example I-2, 2-[5-Chloro-3-(ethylsulfonyl)-2H-indazol-2-yl]-3-methyl-6-(trifluoromethyl)-3H-imidazo[4,5-b]pyridine], the efficacy in the assay with Phaedon cochleariae, in the assay with Spodoptera frugiperda and in the assay on Ctenocephalides felis [3] was 100% each time. The figures for the “efficacy (kill)” value in the assay on Ctenocephalides felis [2] and in the assay with Lucilia cuprina were 80% and 100%, respectively. Moreover, in the assay on Myzus persicae [1], the pest or weed control at 4 ppm turned out to be 100%. The pest or weed control at 20 ppm in the assay with Myzus persicae [1] came out at 100%.
Take `CCS(=O)(=O)c1c2ccccc2nn1-c1nc2cc(C(F)(F)F)cnc2n1C` [Example I-3]: the efficacy in the assay on Phaedon cochleariae and with Myzus persicae [4] was 100% throughout. For the same compound, the pest or weed control at 4 ppm with Myzus persicae [1] came to 90%. In addition, in the assay with Lucilia cuprina, the “efficacy (kill)” value worked out at 100%.
In the assay with Phaedon cochleariae, `CCS(=O)(=O)c1c2cccc(Cl)c2nn1-c1nc2cc(C(F)(F)F)cnc2n1C` [Example I-4] returned an efficacy of 100%. Further, in the assay with Myzus persicae [1], the pest or weed control at 4 ppm came to 90%.
As to `CCS(=O)(=O)c1c2cc(C(F)(F)F)ccc2nn1-c1nc2cc(C(F)(F)F)cnc2n1C` [Example I-5], the efficacy with Phaedon cochleariae, in the assay on Spodoptera frugiperda and in the assay on Ctenocephalides felis [3] was 100% throughout. In addition, in the assay on Myzus persicae [1], the pest or weed control at 4 ppm stood at 100%. Further, the “efficacy (kill)” value in the assay on Lucilia cuprina is recorded as 100%.
In the case of `CCS(=O)(=O)c1c2ccc(C(F)(F)F)cc2nn1-c1nc2cc(C(F)(F)F)cnc2n1C` [Example I-6], the efficacy with Phaedon cochleariae, with Spodoptera frugiperda and with Ctenocephalides felis [3] was 100% each time. The “efficacy (kill)” value in the assay with Musca domestica was determined as 90%; in the assay on Lucilia cuprina, 100%. Moreover, in the assay on Myzus persicae [1], the pest or weed control at 4 ppm worked out at 100%. The pest or weed control at 20 ppm in the assay with Myzus persicae [1] came to 100%.
Turning to `CCS(=O)(=O)c1c2c(nn1-c1nc3cc(C(F)(F)F)cnc3n1C)CCCC2` [Example I-10, 2-[3-(Ethylsulfonyl)-4,5,6,7-tetrahydro-2H-indazol-2-yl]-3-methyl-6-(trifluoromethyl)-3H-imidazo[4,5-b]pyridine], the pest or weed control at 4 ppm in the assay on Myzus persicae [1] came to 100%. For the same compound, the results for the efficacy in the assay on Ctenocephalides felis [3], in the assay with Myzus persicae [4] and with Rhipicephalus sanguineus were 100%, 90% and 100%, respectively. For the same compound, the “efficacy (kill)” value in the assay with Lucilia cuprina was determined as 100%.
On to `CCS(=O)(=O)c1c2c(nn1-c1nc3cc(C(F)(F)F)cnc3n1C)CC(C)(C)CC2` [Example I-11], for which, in the assay with Myzus persicae [1], the pest or weed control at 4 ppm amounted to 100%. The same compound came in with an efficacy in the assay with Myzus persicae [4] of 90%.
`CCS(=O)(=O)c1c2ccc(C(F)(F)F)cc2nn1-c1nc2cc(C(F)(F)F)ncc2n1C` [Example I-12]: the efficacy in the assay on Phaedon cochleariae and in the assay with Spodoptera frugiperda was 100% throughout. Besides, the pest or weed control at 4 ppm in the assay on Myzus persicae [1] is 100%.
